In patent US11957646B2, “Methods and compositions of stable phenylephrine formulations” (Paragon BioTeck, Inc., priority 2013, dated 2024):

Tests used:
[1] = test system: vasopressor effect of (−)-epinephrine, (−)-norepinephrine, and tetraethylammonium; details: anesthetized rats, infusion of large amount; cited from earlier work
[2] = Chiral purity by chiral HPLC before and after 6 months storage at 2 to 8° C.; type: physicochemical; details: 10% solution
Method: Column-OJ-RH (150×4.6) mm, Flow: 0.6 ml min-1, Mobile Phase: 0.05% Ethylenediamine in Methanol, Column Temp: 25° C.; Detection wavelength: 270 nm. 4.0 mg sample in 1 mL ethanol was analyzed. The injection volume to HPLC is 3.0 μL.
R-Phenylephrine Hydrochloride Opthalmic Solution, 2.5% and 10% prepared as in Example 1 were stored at 2 to 8° C. The chiral purity of Sample 1 (10% solution) was assessed before low temperature stability test.
The chiral purity of R-Phenylephrine Hydrochloride was determined by the method and conditions as shown in Example 3.

rabbit pupil = experiment: Dilation assay of R and S form phenylephrine solutions on rabbits; type: in vivo, NZW rabbits; details: 10% solution, 3 drops, versus untreated eye
Method: Two ophthalmic formulations, formulated 10% Phenylephrine hydrochloride (S-isomer) and the exemplary invention composition, 10% Phenylephrine hydrochloride (R-isomer) were tested for their ocular activity in NZW rabbits.
Both R and S form solutions (10% solution prepared as in Example 1) were test for dilation on rabbits. The first test rabbit received 3 drops of the S form formulation and the second test rabbit received 3 drops of the R form solution.

In the case of `CNCC(O)c1ccc(O)c(O)c1` (single isomer, unassigned; (+)) [(+)-epinephrine], the “tachyphylaxis to vasopressor effect” value [1] is listed as “induces tachyphylaxis”.

For `NCC(O)c1ccc(O)c(O)c1` (single isomer, unassigned; (+)) [(+)-norepinephrine], the “tachyphylaxis to vasopressor effect” value [1] is given as “induces tachyphylaxis”.

For `CNC[C@H](O)c1cccc(O)c1` [(−)-phenylephrine], the “tachyphylaxis to vasopressor effect” value [1] is listed as “induces tachyphylaxis”.

In the case of `CNC[C@H](O)c1cccc(O)c1.Cl` [R-Phenylephrine Hydrochloride, (R)-3-hydroxy-α-[(methylamino)methyl]benzenemethanol hydrochloride], the “chiral purity before storage” value ([2]; before low temperature stability test) is reported as 99.3 % ee and the “chiral purity after 6 months storage” value ([2]; stored at 2 to 8° C. for 6 months) is reported as 99.3 % ee.

For `CNC[C@@H](O)c1cccc(O)c1` [S-Phenylephrine], the pupil dilation (rabbit pupil) is listed as “dilated the eye only slightly more than that was untreated” and the “tachyphylaxis to vasopressor effect” value [1] is listed as “induces tachyphylaxis”.

For `CNCCc1ccc(O)c(O)c1` [epinine], the “tachyphylaxis to vasopressor effect” value [1] is given as “induces tachyphylaxis”.
